Data published in patent US8324245B2, “Quinoline derivative and quinazoline derivative inhibiting self-phosphorylation of hepatocytus proliferator receptor, and medicinal composition containing the same” (Kyowa Hakko Kirin Co., Ltd., priority 2001, dated 2012).

Molecular target: T1, met (HGF receptor) in human gastric cancer cells MKN45 (Homo sapiens, UniProt P08581)
T1 construct: endogenous in cells; host or cells: MKN45 human gastric cancer cells
Assay: Inhibitory activity against met-autophosphorylation using ELISA method (2), MKN45 cells, HGF-independent
Format: cell-based
Outline: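 MKN45 cells, 3×10^4 per well in RPMI with 0.1% FCS overnight, were exposed to compound in DMSO for 1 h at 37 °C without HGF. Lysates were captured on anti-phosphotyrosine (PY20) plates, Met detected with anti-Met and peroxidase secondary antibody, absorbance at 450 nm.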

T1 sequence (P08581 25-1390): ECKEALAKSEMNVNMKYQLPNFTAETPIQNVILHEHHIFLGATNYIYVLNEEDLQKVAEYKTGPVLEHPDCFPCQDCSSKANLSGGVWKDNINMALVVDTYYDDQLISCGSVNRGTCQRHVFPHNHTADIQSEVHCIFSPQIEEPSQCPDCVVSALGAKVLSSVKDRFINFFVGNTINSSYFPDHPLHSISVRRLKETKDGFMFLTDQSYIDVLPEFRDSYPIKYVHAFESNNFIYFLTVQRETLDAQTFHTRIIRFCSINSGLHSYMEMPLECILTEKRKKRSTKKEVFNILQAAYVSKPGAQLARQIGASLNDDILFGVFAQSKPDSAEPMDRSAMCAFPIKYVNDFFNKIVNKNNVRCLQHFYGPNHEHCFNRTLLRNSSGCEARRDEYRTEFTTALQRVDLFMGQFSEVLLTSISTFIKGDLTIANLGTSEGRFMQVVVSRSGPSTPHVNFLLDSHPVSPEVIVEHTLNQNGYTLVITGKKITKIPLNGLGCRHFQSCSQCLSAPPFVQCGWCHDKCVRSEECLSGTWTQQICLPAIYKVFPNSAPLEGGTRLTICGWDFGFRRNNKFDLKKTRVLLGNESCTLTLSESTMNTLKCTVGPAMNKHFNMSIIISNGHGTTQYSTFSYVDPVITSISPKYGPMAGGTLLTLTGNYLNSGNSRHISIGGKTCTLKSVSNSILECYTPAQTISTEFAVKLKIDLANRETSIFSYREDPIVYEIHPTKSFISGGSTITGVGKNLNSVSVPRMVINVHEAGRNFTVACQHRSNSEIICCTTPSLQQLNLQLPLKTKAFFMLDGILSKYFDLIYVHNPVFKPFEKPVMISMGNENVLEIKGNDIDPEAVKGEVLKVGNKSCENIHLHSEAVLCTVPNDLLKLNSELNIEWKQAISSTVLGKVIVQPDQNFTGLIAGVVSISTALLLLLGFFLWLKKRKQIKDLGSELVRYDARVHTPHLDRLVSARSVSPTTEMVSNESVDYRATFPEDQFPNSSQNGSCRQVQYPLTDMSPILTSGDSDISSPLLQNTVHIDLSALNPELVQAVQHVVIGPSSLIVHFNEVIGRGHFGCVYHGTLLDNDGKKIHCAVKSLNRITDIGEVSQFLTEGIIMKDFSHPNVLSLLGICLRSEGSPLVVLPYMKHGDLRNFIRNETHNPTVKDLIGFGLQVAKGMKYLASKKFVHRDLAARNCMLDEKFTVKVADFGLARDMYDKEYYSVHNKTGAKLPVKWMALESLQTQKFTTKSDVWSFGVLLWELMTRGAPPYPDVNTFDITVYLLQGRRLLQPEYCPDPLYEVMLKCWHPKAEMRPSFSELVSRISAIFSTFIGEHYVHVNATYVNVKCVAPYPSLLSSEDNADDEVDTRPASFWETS

Q: `COc1ccccc1CC(=O)NC(=S)Nc1ccc(Oc2ccnc3cc(OC)c(OC)cc23)cc1F` [Example 169, 1-[4-(6,7-dimethoxyquinolin-4-yloxy)-2-fluorophenyl]-3-[2-(2-methoxyphenyl)acetyl]thiourea] was tested. Which IC50 did it give?
A: The IC50 was 0.276 µM.

Q: Which IC50 does the source give for `COc1cc2c(Oc3ccc(NC(=O)NC(=O)Cc4ccccc4)cc3F)ccnc2cc1OCCCN1CCC(CO)CC1` [Example 308, 1-(3-Fluoro-4-{7-[3-(4-hydroxymethyl-piperidin-1-yl)-propoxy]-6-methoxy-quinolin-4-yloxy}-phenyl)-3-phenylacetyl-urea] here?
A: The IC50 was 0.0214 µM.

Q: `COc1cc2c(Oc3ccc(NC(=O)NC(=O)Cc4ccc(F)cc4)c(F)c3)ccnc2cc1OCc1ccccc1` [Example 40, N-(4-{[7-(Benzyloxy)-6-methoxy-4-quinolyl]oxy}-2-fluorophenyl)-N′-[2-(4-fluorophenyl)acetyl]urea] was tested. Which IC50 did it give?
A: The IC50 was 0.242 µM.

Q: For `COc1cc2c(Oc3ccc(NC(=O)NC(=O)Cc4ccc(F)cc4)cc3F)ccnc2cc1OCC(O)CN1CCOCC1` (stereo not drawn) [Example 336, 1-{3-Fluoro-4-[7-(2-hydroxy-3-morpholin-1-yl-propoxy)-6-methoxy-quinolin-4-yloxy]-phenyl}-3-[2-(4-fluoro-phenyl)-acetyl]-urea], which IC50 is on record?
A: The IC50 was 0.0328 µM.

Q: With `COc1cc2nccc(Oc3ccc(NC(=S)NC(=O)Cc4ccc(F)cc4)c(F)c3)c2cc1OC` [Example 72, 1-[4-(6,7-dimethoxyquinolin-4-yloxy)-2-fluoro-phenyl]-3-[2-(4-fluorophenyl)acetyl]thiourea] as the compound, how does the IC50 read?
A: Its IC50 is 0.0279 µM.

Q: Which IC50 does the source give for `COc1cc2nccc(Oc3ccc(NC(=O)NC(=O)Nc4cccc(C)n4)cc3)c2cc1OC` [Example 234, N-(6-methyl-2-pyridyl)-({[4-(6,7-dimethoxy-quinolin-4-yloxy)anilino]carbonyl}amino)methanamide] here?
A: The IC50 was 0.457 µM.

Q: `COc1cc2c(Oc3ccc(NC(=O)NC(=O)Cc4ccc(F)cc4)cc3F)ccnc2cc1OCCCN1CCCCC1` [Example 47, 1-{3-fluoro-4-[6-methoxy-7-(3-piperidin-1-yl-propoxy)quinolin-4-yloxy]phenyl}-3-[2-(4-fluorophenyl)-acetyl]urea] was tested. Which IC50 did it give?
A: The IC50 was 0.215 µM.

Q: For `COc1cc2c(Oc3ccc(NC(=S)NC(=O)Cc4ccccc4)cc3F)ccnc2cc1OCCN1CCN(C)CC1` [Example 270, 1-(3-Fluoro-4-{6-methoxy-7-[2-(4-methyl-piperazin-1-yl)-ethoxy]-quinolin-4-yloxy}-phenyl)-3-phenylacetyl-thiourea], which IC50 is on record?
A: Its IC50 is 0.0267 µM.

Q: How did the IC50 turn out when `COc1cc2c(Oc3ccc(NC(=O)NC(=O)Cc4ccc(F)cc4)cc3F)ccnc2cc1OCCCN1CCOCC1` [Example 46, 1-{3-fluoro-4-[6-methoxy-7-(3-morpholin-4-yl-propoxy)quinolin-4-yloxy]phenyl}-3-[2-(4-fluorophenyl)-acetyl]urea] was run?
A: The IC50 was 0.229 µM.

Q: How did the IC50 turn out when `COc1cc2nccc(Oc3ccc(NC(=S)NC(=O)Cc4ccccc4[N+](=O)[O-])cc3)c2cc1OC` [Example 155, 1-[4-(6,7-dimethoxyquinolin-4-yloxy)phenyl]-3-[2-(2-nitrophenyl)acetyl]thiourea] was run?
A: Its IC50 is 0.982 µM.

Q: How did the IC50 turn out when `COc1cc2nccc(Oc3ccc(NC(=S)NC(=O)Cc4ccc(F)cc4)cc3Cl)c2cc1OC` [Example 73, 1-[3-chloro-4-(6,7-dimethoxyquinolin-4-yloxy)-phenyl]-3-[2-(4-fluorophenyl)acetyl]thiourea] was run?
A: The IC50 was 0.0281 µM.

Q: With `COc1cc2nccc(Oc3ccc(NC(=S)NC(=O)Cc4cccc(Cl)c4)cc3F)c2cc1OC` [Example 173, 1-[2-(3-chlorophenyl)acetyl]-3-[4-(6,7-dimethoxyquinolin-4-yloxy)-3-fluorophenyl]thiourea] as the compound, how does the IC50 read?
A: The IC50 was 0.222 µM.

Q: `COc1cc2c(Oc3ccc(NC(=O)NC(=O)Cc4ccccc4)c(F)c3)ccnc2cc1OCCCN1CCC(CO)CC1` [Example 311, 1-(2-Fluoro-4-{7-[3-(4-hydroxymethyl-piperidin-1-yl)-propoxy]-6-methoxy-quinolin-4-yloxy}-phenyl)-3-phenyl-acetyl-urea] was tested. Which IC50 did it give?
A: The IC50 was 0.0185 µM.

Q: `COc1cc2nccc(Oc3ccc(NC(=S)NC(=O)Cc4cccc(C)c4)cc3Cl)c2cc1OC` [Example 78, 1-[3-chloro-4-(6,7-dimethoxyquinolin-4-yloxy)-phenyl]-3-(2-m-tolylacetyl)thiourea] was tested. Which IC50 did it give?
A: The IC50 was 0.0663 µM.

Q: `COc1cc2nccc(Oc3ccc(NC(=S)NC(=O)Cc4cccs4)cc3)c2cc1OC` [Example 66, 1-[4-(6,7-dimethoxyquinolin-4-yloxy)phenyl]-3-(2-thiophen-2-ylacetyl)thiourea] was tested. Which IC50 did it give?
A: The IC50 was 0.0792 µM.

Q: `COc1cc2nccc(Oc3ccc(NC(=O)NC(=O)Nc4ccccc4Br)cc3)c2cc1OC` [Example 247, N-(2-bromophenyl)-({[4-(6,7-dimethoxy-quinolin-4-yloxy)anilino]carbonyl}amino)methanamide] was tested. Which IC50 did it give?
A: The IC50 was 0.65 µM.

Q: With `COc1cc2nccc(Oc3ccc(NC(=O)NC(=O)Nc4ccccc4CCO)cc3)c2cc1OC` [Example 267, N-[2-(2-hydroxyethyl)phenyl]-({[4-(6,7-dimethoxyquinolin-4-yloxy)anilino]carbonyl}amino)-methanamide] as the compound, how does the IC50 read?
A: Its IC50 is 0.109 µM.

Q: Which IC50 does the source give for `COc1cc2nccc(Oc3ccc(NC(=S)NC(=O)Cc4c(F)ccc(F)c4F)cc3F)c2cc1OC` [Example 206, 1-[4-(6,7-dimethoxyquinolin-4-yloxy)-3-fluorophenyl]-3-[2-(2,3,6-trifluorophenyl)acetyl]-thiourea] here?
A: Its IC50 is 0.444 µM.

Q: Which IC50 does the source give for `COc1cc2nccc(Oc3ccc(NC(=O)NC(=O)CSc4nccn4C)cc3Cl)c2cc1OC` [Example 130, 1-[3-chloro-4-(6,7-dimethoxyquinolin-4-yloxy)phenyl]-3-[2-(1-methyl-1H-imidazol-2-ylsulfanyl)-acetyl]urea] here?
A: The IC50 was 2.16 µM.

Q: `COc1cc2nccc(Oc3ccc(NC(=O)NC(=O)Nc4ccccc4C(F)(F)F)cc3)c2cc1OC` [Example 240, N-[2-(trifluoromethyl)phenyl]-({[4-(6,7-dimethoxyquinolin-4-yloxy)anilino]carbonyl}amino)methan-amide] was tested. Which IC50 did it give?
A: The IC50 was 2.74 µM.

Q: With `COc1cc2nccc(Oc3ccc(NC(=O)CC(=O)Nc4ccc(F)cc4)cc3)c2cc1OC` [Example 5, N-[4-(6,7-dimethoxyquinolin-4-yloxy)phenyl]-N′-(4-fluorophenyl)malonamide] as the compound, how does the IC50 read?
A: The IC50 was 0.0189 µM.

Q: With `COc1cc2nccc(Oc3ccc(NC(=S)NC(=O)Cc4cccc(C(F)(F)F)c4)c(F)c3)c2cc1OC` [Example 202, 1-[4-(6,7-dimethoxyquinolin-4-yloxy)-2-fluorophenyl]-3-[2-(3-trifluoromethylphenyl)acetyl]-thiourea] as the compound, how does the IC50 read?
A: Its IC50 is 0.642 µM.

Q: For `COc1cc2nccc(Oc3ccc(NC(=S)NC(=O)c4cccc(C(F)(F)F)c4)cc3)c2cc1OC` [Example 145, 1-[4-(6,7-dimethoxyquinolin-4-yloxy)phenyl]-3-(3-trifluoromethyl-benzoyl)thiourea], which IC50 is on record?
A: The IC50 was 0.364 µM.

Q: For `COc1cc2nccc(Oc3ccc(NC(=S)NC(=O)Cc4ccccc4C(F)(F)F)c(F)c3)c2cc1OC` [Example 200, 1-[4-(6,7-dimethoxyquinolin-4-yloxy)-2-fluorophenyl]-3-[2-(2-trifluoromethylphenyl)acetyl]-thiourea], which IC50 is on record?
A: Its IC50 is 0.305 µM.

Q: Which IC50 does the source give for `COc1cc2nccc(Oc3ccc(NC(=S)NC(=O)Cc4ccccc4F)cc3)c2cc1OC` [Example 151, 1-[4-(6,7-dimethoxyquinolin-4-yloxy)phenyl]-3-[2-(2-fluorophenyl)acetyl]thiourea] here?
A: The IC50 was 0.256 µM.

Q: With `COc1cc2nccc(Oc3ccc(NC(=O)NC(=O)Nc4ncc(C)cc4Br)cc3)c2cc1OC` [Example 230, N-(3-bromo-5-methyl-2-pyridyl)-({[4-(6,7-dimethoxyquinolin-4-yloxy)anilino]carbonyl}amino)-methanamide] as the compound, how does the IC50 read?
A: Its IC50 is 0.34 µM.

Q: For `COc1cc2nccc(Oc3ccc(NC(=O)NC(=O)Nc4ccc5c(c4)OCCO5)cc3)c2cc1OC` [Example 238, N-(2,3-dihydro-1,4-benzodioxin-6-yl)-({[4-(6,7-dimethoxyquinolin-4-yloxy)anilino]carbonyl}amino)-methanamide], which IC50 is on record?
A: Its IC50 is 4.02 µM.

Q: How did the IC50 turn out when `COc1cc2nccc(Oc3ccc(NC(=O)NC(=O)Cc4cccs4)cc3)c2cc1OC` [Example 29, 1-[4-(6,7-dimethoxyquinolin-4-yloxy)phenyl]-3-(2-thiophen-2-ylacetyl)urea] was run?
A: Its IC50 is 0.0371 µM.

Q: How did the IC50 turn out when `COc1cc2nccc(Oc3ccc(NC(=O)CC(=O)N(C)c4ccccc4)cc3)c2cc1OC` [Example 216, N-[4-(6,7-dimethoxyquinolin-4-yloxy)phenyl]-N′-methyl-N′-phenylmalonamide] was run?
A: Its IC50 is 0.228 µM.

Q: For `COc1cc2nccc(Oc3ccc(NC(=O)NC(=O)Cc4ccccc4)cc3Cl)c2cc1OC` [Example 18, 1-[3-chloro-4-(6,7-dimethoxyquinolin-4-yloxy)-phenyl]-3-phenylacetylurea], which IC50 is on record?
A: The IC50 was 0.15 µM.

Q: `COc1cc2nccc(Oc3ccc(NC(=S)NC(=O)CCCC(C)C)c(F)c3)c2cc1OC` [Example 178, 1-[4-(6,7-dimethoxyquinolin-4-yloxy)-2-fluorophenyl]-3-(5-methyl-hexanoyl)thiourea] was tested. Which IC50 did it give?
A: Its IC50 is 0.268 µM.

Q: `COc1cc2nccc(Oc3ccc(NC(=O)CC(=O)Nc4ccccc4)cc3)c2cc1OC` [Example 100, N-[4-(6,7-dimethoxyquinolin-4-yloxy)phenyl]-N′-phenylmalonamide] was tested. Which IC50 did it give?
A: Its IC50 is 0.0308 µM.

Q: Which IC50 does the source give for `COc1cc2nccc(Oc3ccc(NC(=S)NC(=O)Cc4cccc(Cl)c4)cc3Cl)c2cc1OC` [Example 174, 1-[3-chloro-4-(6,7-dimethoxyquinolin-4-yloxy)phenyl]-3-[2-(3-chlorophenyl)acetyl]thiourea] here?
A: Its IC50 is 0.252 µM.

Q: `COc1cc2nccc(Oc3ccc(NC(=S)NC(=O)CC4C5CCC4CC5)cc3)c2cc1OC` (stereo not drawn) [Example 88, 1-(2-bicyclo[2.2.1]hepto-7-ylacetyl)-3-[4-(6,7-dimethoxyquinolin-4-yloxy)phenyl]thiourea] was tested. Which IC50 did it give?
A: The IC50 was 0.0492 µM.

Q: With `COc1cc2nccc(Oc3ccc(NC(=S)NC(=O)Cc4ccccc4Cl)cc3Cl)c2cc1OC` [Example 183, 1-[3-chloro-4-(6,7-dimethoxyquinolin-4-yloxy)phenyl]-3-[2-(2-chlorophenyl)acetyl]thiourea] as the compound, how does the IC50 read?
A: Its IC50 is 0.224 µM.

Q: How did the IC50 turn out when `COc1cc2nccc(Oc3ccc(NC(=O)NC(=O)Nc4ccc(Cl)cc4C)cc3)c2cc1OC` [Example 242, N-(4-chloro-2-methylphenyl)-({[4-(6,7-dimethoxyquinolin-4-yloxy)anilino]carbonyl}amino)-methanamide] was run?
A: The IC50 was 0.851 µM.
